Results as given in the supplement of paper PMC10627819.

Columns and labels:
Assay in all cases: fitness (endpoint OD595 vs no drug) (fraction); higher = more growth
B. subtilis 168 = tested on: B. subtilis 168
Method in brief: (§1)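 Each well of a 384-well plate received 30 µl of culture at OD595 0.01, or 55 µl for S. pneumoniae. TSB, LB Lennox or CY served as media at 37 °C. OD595 was taken every 30 min for 14 h and corrected by subtracting the first reading. Fitness is the optical density at stationary-phase entry divided by the robust mean of no-drug controls, capped at 1.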

S. aureus Newman = tested on: S. aureus Newman
Method in brief: as §1

S. aureus DSM 20231 = tested on: S. aureus DSM 20231
Method in brief: as §1

S. pneumoniae D39V = tested on: S. pneumoniae D39V
Method in brief: as §1

N[C@@H]1CONC1=O [Cycloserine D] + CC(C1CCC(C(O1)OC2C(CC(C(C2O)OC3C(C(C(CO3)(C)O)NC)O)N)N)N)NC [Gentamicin]
main component drawn
Conditions	fitness
B. subtilis 168, first compound 0.125 µg/mL, partner 0.0625 µg/mL	0.964
B. subtilis 168, first compound 0.125 µg/mL, partner 0.25 µg/mL	0.102
B. subtilis 168, first compound 0.25 µg/mL, partner 0.0625 µg/mL	0.943
B. subtilis 168, first compound 0.25 µg/mL, partner 0.25 µg/mL	0.0775
B. subtilis 168, first compound 0.5 µg/mL, partner 0.0625 µg/mL	0.914
B. subtilis 168, first compound 0.5 µg/mL, partner 0.25 µg/mL	0.0653
S. aureus Newman, first compound 0.375 µg/mL, partner 0.375 µg/mL	0.986
S. aureus Newman, first compound 0.375 µg/mL, partner 0.5 µg/mL	0.923
S. aureus Newman, first compound 0.375 µg/mL, partner 0.75 µg/mL	0.974
S. aureus Newman, first compound 0.375 µg/mL, partner 1 µg/mL	≥ 1
S. aureus Newman, first compound 0.375 µg/mL, partner 1.5 µg/mL	0.955
S. aureus Newman, first compound 0.375 µg/mL, partner 2 µg/mL	≥ 1
S. aureus Newman, first compound 0.75 µg/mL, partner 0.375 µg/mL	≥ 1
S. aureus Newman, first compound 0.75 µg/mL, partner 0.5 µg/mL	0.921
S. aureus Newman, first compound 0.75 µg/mL, partner 0.75 µg/mL	≥ 1
S. aureus Newman, first compound 0.75 µg/mL, partner 1 µg/mL	≥ 1
S. aureus Newman, first compound 0.75 µg/mL, partner 2 µg/mL	≥ 1
S. aureus Newman, first compound 1.5 µg/mL, partner 0.375 µg/mL	1
S. aureus Newman, first compound 1.5 µg/mL, partner 0.5 µg/mL	0.952
S. aureus Newman, first compound 1.5 µg/mL, partner 0.75 µg/mL	≥ 1
S. aureus Newman, first compound 1.5 µg/mL, partner 1 µg/mL	≥ 1
S. aureus Newman, first compound 1.5 µg/mL, partner 2 µg/mL	≥ 1

N[C@@H]1CONC1=O [Cycloserine D] + CCC[C@@H]1C[C@@H](C(=O)N[C@@H]([C@H]2O[C@H](SC)[C@H](O)[C@@H](O)[C@H]2O)[C@@H](C)O)N(C)C1 [Lincomycin]
fitness
Conditions	first compound 0.125 µg/mL	first compound 0.25 µg/mL	first compound 0.375 µg/mL	first compound 0.5 µg/mL	first compound 0.75 µg/mL	first compound 1.5 µg/mL
B. subtilis 168, partner 0.1 µg/mL	0.87	0.873	–	0.911	–	–
B. subtilis 168, partner 0.2 µg/mL	0.861	0.877	–	0.932	–	–
B. subtilis 168, partner 0.4 µg/mL	0.868	0.906	–	0.964	–	–
S. aureus DSM 20231, partner 0.1 µg/mL	–	–	0.936	–	0.921	0.915
S. aureus DSM 20231, partner 0.4 µg/mL	–	–	0.278	–	0.271	0.247

fitness, B. subtilis 168, one replicate
Conditions	first compound 0.125 µg/mL	first compound 0.25 µg/mL	first compound 0.5 µg/mL
partner 0.8 µg/mL	0.923	0.939	0.905
partner 1.6 µg/mL	0.88	0.813	0.862

N[C@@H]1CONC1=O [Cycloserine D] + CN(C)c1cc(NC(=O)CNC(C)(C)C)c(O)c2c1C[C@H]1C[C@H]3[C@H](N(C)C)C(O)=C(C(N)=O)C(=O)[C@@]3(O)C(O)=C1C2=O [Tigecycline]
fitness
Conditions	first compound 0.125 µg/mL	first compound 0.25 µg/mL	first compound 0.375 µg/mL	first compound 0.5 µg/mL	first compound 0.75 µg/mL	first compound 1.5 µg/mL
B. subtilis 168, partner 0.039 µg/mL	0.944	0.987	–	≥ 1	–	–
B. subtilis 168, partner 0.078 µg/mL	0.955	0.867	–	0.912	–	–
B. subtilis 168, partner 0.156 µg/mL	0.914	0.911	–	0.982	–	–
S. aureus Newman, partner 0.039 µg/mL	–	–	0.956	–	0.936	0.931
S. aureus Newman, partner 0.078 µg/mL	–	–	0.981	–	≥ 1	0.994
S. aureus Newman, partner 0.156 µg/mL	–	–	0.986	–	0.983	0.971

fitness, B. subtilis 168, one replicate
Conditions	first compound 0.125 µg/mL	first compound 0.25 µg/mL	first compound 0.5 µg/mL
partner 0.125 µg/mL	≥ 1	≥ 1	0.994
partner 0.25 µg/mL	≥ 1	0.97	0.922
partner 0.5 µg/mL	0.944	0.94	≥ 1

N[C@@H]1CONC1=O [Cycloserine D] + CN[C@@H]1[C@H](O[C@H]2[C@H](O[C@H]3[C@H](O)[C@@H](O)[C@H](N=C(N)N)[C@@H](O)[C@@H]3N=C(N)N)O[C@@H](C)[C@]2(O)C=O)O[C@@H](CO)[C@H](O)[C@H]1O [Streptomycin]
fitness
Conditions	first compound 0.125 µg/mL	first compound 0.25 µg/mL	first compound 0.375 µg/mL	first compound 0.5 µg/mL	first compound 0.75 µg/mL	first compound 1.5 µg/mL
B. subtilis 168, partner 2 µg/mL	0.931	0.937	–	0.982	–	–
B. subtilis 168, partner 8 µg/mL	0.0826	0.0554	–	0.074	–	–
S. aureus Newman, partner 1 µg/mL	–	–	0.984	–	0.985	0.978
S. aureus Newman, partner 2 µg/mL	–	–	0.976	–	0.93	0.941

N[C@@H]1CONC1=O [Cycloserine D] + COc1cc(Cc2cnc(N)nc2N)cc(OC)c1OC [Trimethoprim]
fitness, B. subtilis 168, one replicate
Conditions	partner 0.1 µg/mL	partner 0.2 µg/mL	partner 0.4 µg/mL	partner 1 µg/mL	partner 2 µg/mL
first compound 0.125 µg/mL	0.917	0.789	0.584	0.344	0.268
first compound 0.25 µg/mL	0.849	0.757	0.56	0.323	0.243
first compound 0.5 µg/mL	0.986	0.818	0.533	0.358	0.234

fitness
Conditions	partner 0.125 µg/mL	partner 0.25 µg/mL	partner 0.5 µg/mL	partner 1 µg/mL
B. subtilis 168, first compound 0.125 µg/mL	0.635	0.501	0.475	–
B. subtilis 168, first compound 0.25 µg/mL	0.664	–	0.48	–
B. subtilis 168, first compound 0.5 µg/mL	0.664	–	0.511	–
S. aureus DSM 20231, first compound 0.375 µg/mL	0.758	–	–	0.0316
S. aureus DSM 20231, first compound 0.75 µg/mL	0.807	0.61	–	0.0296
S. aureus DSM 20231, first compound 1.5 µg/mL	0.804	0.569	–	0.0385

O=C(O[C@@H]1Cc2c(O)cc(O)cc2O[C@@H]1c1cc(O)c(O)c(O)c1)c1cc(O)c(O)c(O)c1 [EGCG] + CC1(C)S[C@@H]2[C@H](NC(=O)Cc3ccccc3)C(=O)N2[C@H]1C(=O)O [Penicillin G]
fitness, S. aureus Newman
Conditions	first compound 12.5 µg/mL	first compound 25 µg/mL	first compound 50 µg/mL
partner 0.0195 µg/mL	0.738	0.623	–
partner 0.039 µg/mL	0.743	0.739	0.594
partner 0.078 µg/mL	0.741	0.729	0.644

O=C(O[C@@H]1Cc2c(O)cc(O)cc2O[C@@H]1c1cc(O)c(O)c(O)c1)c1cc(O)c(O)c(O)c1 [EGCG] + CC1=C(C(=O)O)N2C(=O)[C@@H](NC(=O)[C@H](N)c3ccccc3)[C@H]2SC1 [Cephalexin]
fitness
Conditions	first compound 6.25 µg/mL	first compound 12.5 µg/mL	first compound 25 µg/mL	first compound 50 µg/mL
B. subtilis 168, partner 0.125 µg/mL	0.875	0.51	0.222	–
B. subtilis 168, partner 0.25 µg/mL	0.988	–	–	–
B. subtilis 168, partner 0.5 µg/mL	0.919	–	–	–
S. aureus Newman, partner 0.25 µg/mL	–	0.737	0.682	0.775
S. aureus Newman, partner 0.5 µg/mL	–	0.776	0.762	0.739
S. aureus Newman, partner 1 µg/mL	–	0.796	0.806	0.79
S. pneumoniae D39V, partner 1 µg/mL	–	0.669	0.72	–
S. pneumoniae D39V, partner 2 µg/mL	–	0.0733	0.2	0.111
S. pneumoniae D39V, partner 4 µg/mL	–	0.0244	0.0566	0.0515

fitness, one replicate
Conditions	first compound 6.25 µg/mL	first compound 12.5 µg/mL	first compound 25 µg/mL	first compound 50 µg/mL
B. subtilis 168, partner 1 µg/mL	0.993	0.862	0.697	–
S. pneumoniae D39V, partner 0.125 µg/mL	–	0.926	0.96	≥ 1
S. pneumoniae D39V, partner 0.25 µg/mL	–	0.902	0.919	0.937
S. pneumoniae D39V, partner 0.5 µg/mL	–	0.932	0.98	0.957
